Target: T1, human CRTH2 receptor (Homo sapiens, UniProt Q9Y5Y4)
T1 construct: host or cells: CHO-K1 (CHO-K1-hCRTH2 cells); membranes prepared in house from the purchased cell line
T1 sequence (Q9Y5Y4 1-395): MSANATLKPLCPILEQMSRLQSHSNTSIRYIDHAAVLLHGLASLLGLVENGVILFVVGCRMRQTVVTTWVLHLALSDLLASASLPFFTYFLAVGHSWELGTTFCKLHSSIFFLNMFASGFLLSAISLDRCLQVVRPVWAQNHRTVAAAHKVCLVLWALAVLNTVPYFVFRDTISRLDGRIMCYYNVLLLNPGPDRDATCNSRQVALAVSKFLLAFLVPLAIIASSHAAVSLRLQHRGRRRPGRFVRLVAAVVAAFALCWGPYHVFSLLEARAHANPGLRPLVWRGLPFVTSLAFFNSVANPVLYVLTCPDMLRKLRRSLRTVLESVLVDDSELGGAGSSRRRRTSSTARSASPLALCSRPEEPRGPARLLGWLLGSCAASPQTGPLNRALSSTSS
Assay: Human CRTH2 receptor membrane radioligand binding assay (SPA, [3H]-PGD2)
Conditions: displacement of [3H]-PGD2 (1 nM) from CHO-K1-hCRTH2 cell membranes, 3 h room temperature
In short: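 SPA binding using membranes from CHO-K1 cells expressing human CRTH2 (0.5–10 μg protein/well) with 1 nM [3H]-PGD2 in Tris pH 7.4 buffer with 0.1% BSA, 3 h at room temperature. Non-specific binding defined with 1 μM PGD2 or 10 μM CAY10471; inhibition calculated from specific binding.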

SMILES	Ki [nM]
CCc1ccccc1C(=O)Nc1ccc(Cn2nc(CC)c(CC(=O)O)c2CC)cc1 [Example 2.23]	6.1
CCc1nn(Cc2ccc(C(=O)Nc3ccc(F)c(Cl)c3)cc2)c(CC)c1CC(=O)O [Example 9.12]	4.8
Cc1nn(Cc2ccc(C(=O)Nc3cccc(C(F)(F)F)c3)cc2)c(C)c1CC(=O)O [Example 9.5]	13.7
CCc1nn(Cc2ccc(C(=O)Nc3ccc(Cl)c(C(F)(F)F)c3)cc2F)c(CC)c1CC(=O)O [Example 9.27]	0.5
CCc1nn(Cc2ccc(S(=O)(=O)Nc3ccc(Cl)c(Cl)c3)cc2)c(CC)c1CC(=O)O [Example 10.4]	21.6
Cc1nn(Cc2ccc(NC(=O)c3ccc(Cl)cc3Br)cc2)c(C)c1CC(=O)O [Example 1.28]	12.4
Cc1nn(Cc2ccc(NC(=O)c3ccc(Cl)c(Cl)c3)cn2)c(C)c1CC(=O)O [Example 18.1]	1.6
CCc1nn(Cc2ccc(C(=O)Nc3ccc(F)c(Br)c3)cc2)c(CC)c1CC(=O)O [Example 9.14]	3.1
CCc1nn(Cc2ccc(NC(=O)C3CCC3)cc2)c(CC)c1CC(=O)O [Example 2.31]	5
Cc1nn(Cc2ccc(NC(=O)c3ccc(C(F)(F)F)cc3)cc2)c(C)c1CC(=O)NS(=O)(=O)C(C)(C)C [Example 11.1]	29.4
CCc1nn(Cc2ccc(NC(=O)C3[C@H]4C[C@@H]5C[C@@H](C[C@H]3C5)C4)cc2)c(CC)c1CC(=O)O (stereo partly shown) [Example 2.33]	0.8
CCc1nn(Cc2ccc(NC(=O)c3cccc4ccccc34)cc2)c(C2CC2)c1CC(=O)O [Example 2.48]	1.8
Cc1cc(NC(=O)c2ccc3ccccc3c2)ccc1Cn1nc(C)c(CC(=O)O)c1C [Example 7.5]	0.3
Cc1nn(Cc2ccc(NC(=O)c3ccc(Cl)cc3)cc2)c(C)c1CC(=O)O [Example 1.6]	3.5
Cc1nn(Cc2ccc(NC(=O)OC(C)(C)C)cc2)c(C)c1CC(=O)O [Example 3.8]	28.6
Cc1nn(Cc2ccc(NCc3ccccc3)cc2)c(C)c1CC(=O)O [Example 6.2]	311
Cc1nn(Cc2ccc(C(C)Oc3ccc(C(F)(F)F)cc3)cc2)c(C)c1CC(=O)O (stereo not shown) [Example 14.5]	253
Cc1nn(Cc2ccc(NC(=O)NCc3ccccc3)cc2)c(C)c1CC(=O)O [Example 4.1]	16.8
Cc1cc(Cl)ccc1C(=O)Nc1ccc(Cn2nc(C)c(CC(=O)O)c2C)c(F)c1 [Example 7.19]	5.8
Cc1nn(Cc2ccc(C(C)Oc3ccc(Cl)c(Cl)c3)cc2)c(C)c1CC(=O)O (stereo not shown) [Example 14.4]	29
CCc1nn(Cc2ccc(C(=O)NCc3cc4ccccc4o3)cc2F)c(CC)c1CC(=O)O [Example 9.28]	10.4
Cc1nn(Cc2ccc(C[S+]([O-])c3ccc(Cl)c(Cl)c3)cc2)c(C)c1CC(=O)O (stereo not shown) [Example 16.5]	325
Cc1nn(Cc2ccc(NC(=O)c3ccc(C(F)(F)F)cc3)cc2F)c(C)c1CC(=O)O [Example 7.17]	1.1
Cc1nn(Cc2ccc(NC(=O)OCc3ccccc3Br)cc2)c(C)c1CC(=O)O [Example 3.6]	14.9
CCc1nn(Cc2ccc(S(=O)(=O)Nc3ccc(Cl)c(F)c3)cc2)c(CC)c1CC(=O)O [Example 10.5]	27.8

SMILES	Ki [nM]
Cc1nn(Cc2ccc(NC(=O)c3ccc4ccccc4c3Br)cc2)c(C)c1CC(=O)O [Example 1.30]	14.6
Cc1cc(C(=O)Nc2ccc(Cn3nc(C)c(CC(=O)O)c3C)cc2)c(C)cc1Br [Example 1.17]	2.5
CCc1nn(C(C)c2ccc(NC(=O)c3ccc(C(F)(F)F)cc3)cc2)c(CC)c1CC(=O)O (stereo not shown) [Example 17.1]	0.1
CCc1c(CC(=O)O)c(C2CC2)nn1Cc1ccc(NC(=O)c2ccc(C(F)(F)F)cc2)cc1 [Example 2.47]	0.1
Cc1nn(Cc2ccc(C(=O)Cc3ccccc3)cc2)c(C)c1CC(=O)O [Example 15.2]	552
Cc1nn(Cc2ccc(C(C)Oc3ccccc3)cc2)c(C)c1CC(=O)O (stereo not shown) [Example 14.6]	428
Cc1nn(Cc2ccc(NC(=O)c3ccc4ccccc4c3)cc2)cc1CC(=O)O [Example 2.57]	19.3
Cc1c(CC(=O)O)cnn1Cc1ccc(NC(=O)c2ccc(Cl)c(Cl)c2)cc1 [Example 2.56]	27.8
CCc1nn(Cc2ccc(NC(=O)c3ccc(Cl)cc3C)cc2)c(CC)c1CC(=O)O [Example 2.2]	1.1
CCc1nn(Cc2ccc(NC(=O)c3ccccc3)cc2)c(CC)c1CC(=O)O [Example 2.3]	3.4
Cc1nn(Cc2ccc(NC(=O)c3ccc4ccccc4c3)cc2Cl)c(C)c1CC(=O)O [Example 7.13]	1.3
CCc1nn(Cc2ccc(C(=O)Nc3ccc(Cl)c(F)c3)cc2)c(CC)c1CC(=O)O [Example 9.11]	7.1
CCc1nn(Cc2ccc(NC(=O)c3ccc(C(F)(F)F)cc3)cc2)c(C2CC2)c1CC(=O)O [Example 2.50]	0.1
CCc1nn(Cc2ccc(C(=O)NCc3ccc4ccccc4c3)cc2)c(CC)c1CC(=O)O [Example 9.17]	34.9
CCc1nn(Cc2ccc(OCc3cccc(C(F)(F)F)c3)cc2)c(CC)c1CC(=O)O [Example 13.10]	19.6
CCc1nn(Cc2ccc(C(=O)NCc3ccc(Cl)c(C(F)(F)F)c3)cc2)c(CC)c1CC(=O)O [Example 9.19]	30.5
CCc1nn(Cc2ccc([S+]([O-])Cc3ccc(Cl)c(Cl)c3)cc2)c(CC)c1CC(=O)O (stereo not shown) [Example 19.3]	12.2
Cc1nn(Cc2ccc(/C=C/c3ccc(C(F)(F)F)cc3)cc2)c(C)c1CC(O)O [Example 12.2]	56.3
CCc1nn(Cc2ccc(C(=O)NCc3ccc(C(F)(F)F)cc3)cc2)c(CC)c1CC(=O)O [Example 9.20]	38
CCc1c(CC(=O)O)cnn1Cc1ccc(NC(=O)c2ccc3ccccc3c2)cc1 [Example 2.59]	17.4
CCc1nn(Cc2ccc(C(=O)Nc3ccc(Cl)c(C(F)(F)F)c3)cc2)c(CC)c1CC(=O)O [Example 9.13]	0.9
Cc1nn(Cc2ccc(NC(=O)OCc3ccccc3)cc2F)c(C)c1CC(=O)O [Example 3.14]	8.9
Cc1nn(Cc2ccc(NCc3ccc(C(F)(F)F)cc3)cc2)c(C)c1CC(=O)O [Example 6.3]	261
CCc1nn(Cc2ccc(NC(=O)c3ccc(C(F)(F)F)cc3)cc2)c(CC)c1CC(=O)O [Example 2.1]	0.2
Cc1ccc(NC(=O)c2ccc(Cn3nc(C)c(CC(=O)O)c3C)cc2)cc1Cl [Example 9.7]	7.5

SMILES	Ki [nM]
Cc1cc(Cn2nc(C)c(CC(=O)O)c2C)ccc1NC(=O)c1ccc(Cl)cc1 [Example 7.2]	162
Cc1nn(Cc2ccc(C(=O)Nc3ccc(Cl)c(F)c3)cc2)c(C)c1CC(=O)O [Example 9.2]	24.5
Cc1nn(Cc2ccc(C(=O)Nc3ccc(Br)c(F)c3)cc2)c(C)c1CC(=O)O [Example 9.9]	19.4
CCc1nn(Cc2ccc(NC(=O)c3cccc(C)c3Br)cc2)c(CC)c1CC(=O)O [Example 2.25]	46.6
Cc1nn(Cc2ccc(NC(=O)c3ccc(C(F)(F)F)cc3)cc2)c(-c2ccccc2)c1CC(=O)O [Example 2.9]	1.8
O=C(O)Cc1c(-c2ccccc2)nn(Cc2ccc(NC(=O)c3ccc(Cl)cc3)cc2)c1-c1ccccc1 [Example 2.43]	17.4
Cc1cc(Cl)ccc1C(=O)Nc1ccc(Cn2nc(C)c(CCC(=O)O)c2C)cc1 [Example 8.1]	1660
Cc1nn(Cc2ccc(NC(=O)c3ccccc3)cc2Cl)c(C)c1CC(=O)O [Example 7.10]	5.5
CCc1nn(Cc2ccc(NC(=O)c3ccc(C)cc3)cc2)c(CC)c1CC(=O)O [Example 2.4]	1.3
Cc1cc(Cn2nc(C)c(CC(=O)O)c2C)ccc1NC(=O)c1ccc(Cl)c(Cl)c1 [Example 7.4]	2.2
Cc1nn(Cc2ccc(NC(=O)OCc3ccccc3)cc2)c(C)c1CCC(=O)O [Example 3.2]	786
Cc1nn(Cc2ccc(C[S+]([O-])c3ccc(C(F)(F)F)cc3)cc2)c(C)c1CC(=O)O (stereo not shown) [Example 16.2]	324
Cc1nn(Cc2ccc(NC(=O)c3ccc(Cl)c(Cl)c3)cc2)c(C)c1CCC(=O)O [Example 8.6]	126
Cc1nn(Cc2ccc(NC(=O)c3cccc4c3CCCC4)cc2)c(C)c1CC(=O)O [Example 1.29]	2.5
COc1ccc(CCNS(=O)(=O)c2ccc(Cn3nc(C)c(CC(=O)O)c3C)cc2)cc1OC [Example 10.2]	742
Cc1nn(Cc2ccc(NC(=O)c3ccc(Cl)c(Cl)c3)cc2)c(-c2ccccc2)c1CC(=O)O [Example 2.10]	0.8
CCc1nn(Cc2ccc(NC(=O)c3ccc(Cl)cc3)cc2)c(CC)c1CC(=O)O [Example 2.5]	0.75
Cc1ccc(C(=O)Nc2ccc(Cn3nc(C)c(CC(=O)O)c3C)c(Cl)c2)c(C)c1 [Example 7.12]	4.7
Cc1nn(Cc2ccc(NC(=O)C3CCCCC3)cc2)c(C)c1CC(=O)O [Example 1.33]	29.8
CCc1c(CC(=O)O)c(C2CC2)nn1Cc1ccc(NC(=O)c2cccc3ccccc23)cc1 [Example 2.51]	3.5
Cc1nn(Cc2ccc(NC(=O)c3ccc(C(F)(F)F)cc3F)cc2)c(C)c1CC(=O)O [Example 1.22]	3320
CCc1nn(Cc2ccc(OCc3cccc(Cl)c3)cc2)c(CC)c1CC(=O)O [Example 13.9]	39.1
CCc1nn(Cc2ccc(OCc3ccc(OC(F)(F)F)c(Cl)c3)cc2)c(CC)c1CC(=O)O [Example 13.11]	48.8

Reference: patent US20140148484A1, “PYRAZOLE COMPOUNDS FOR TREATING HAIRLOSS” (Boehringer Ingelheim International GmbH, priority 2012, published 2014)
